Experimental data published in patent US20080103201A1, “Novel alpha-Glucosidase inhibitor from Tabernaemontana dichotoma” (priority 2006, published 2008).

Experiments:
[1] = Post-prandial blood glucose concentration in rats; assay type: in vivo
[2] = target: α-glucosidase (E.C.3.2.1.20); assay: α-Glucosidase enzyme inhibition assay (PNP-G substrate, spectrophotometric); assay type: biochemical
Description: α-Glucosidase (E.C.3.2.1.20) enzyme inhibition assay was performed according to the slightly modified method of Matsui et al. α-glucosidase (E.C.3.2.1.20) from Saccharomyces species, purchased from Wako Pure Chemical Industries Ltd. (Wako 076-02841). The enzyme inhibition was measured spectrophotometrically at pH 6.9 and at 37° C. using 0.7 mM p-nitrophenyl-α-D-glucopyranoside (PNP-G) as a substrate and 500 m units/mL enzyme, in 50 mM sodium phosphate buffer containing 100 mM NaCl. […] The increment in absorption at 400 nm, due to the hydrolysis of PNP-G by α-glucosidase, was monitored continuously on microplate spectrophotometer (Spectra Max Molecular Devices, USA).) [T. Matsui, C. Yoshimoto, K. Osajima, T. Oki, and Y. Osajima. Biosci. Biotech. Biochem., 1996, 60, 2019].

Compound: CC(=O)OC1CCC2(C)C(CCC3(C)C2CC=C2C4CC(C)(C)CCC4(C)CCC23C)C1(C)C (stereo not drawn) [β-Amyrin acetate, 12-Oleanen-3-yl acetate]
- post-prandial blood glucose concentration [1]: reduced
- IC50 ([2]; pH 6.9, 37° C., 0.7 mM PNP-G substrate, 500 m units/mL enzyme): 22.27 ± 0.112 µM
- potency compared with Acarbose (times) ([2]; α-glucosidase inhibition, relative to acarbose): approximately 35 times
